{"source": "patent US20200352976A1", "about": "“HYPOMETHYLATING AGENTS FOR USE IN TREATMENT OF CANCER” (Otsuka Pharmaceutical Co., Ltd, priority 2019, published 2020)", "key": {"[1]": {"tested_on": "intermediate-risk or high-risk myelodysplastic syndromes (MDS) or chronic myelomonocytic leukemia (CMML)", "assay": "Phase 1/2 trial (Phase 2 portion) with subgroup and landmark analyses: response, survival, transfusion independence", "type": "in vivo, human", "conditions": "for Median survival: all 102 patients", "procedure": "A multicenter, open-label, randomized, phase 1/2 trial was performed with Compound I-1 to compare the activity and safety of two doses of Compound I-1 in hypomethylating agent treatment naïve or relapsed or refractory patients with intermediate-risk or high-risk myelodysplastic syndromes.\nPatients enrolled in the study were aged 18 years or older, with a confirmed diagnosis of IPSS intermediate-1, intermediate-2, or high-risk myelodysplastic syndromes (MDS), or chronic myelomonocytic leukemia (CMML). Patients were either hypomethylating agent treatment-naïve or had relapsed or refractory disease after previous hypomethylating agent treatment as determined by the investigators' judgment (two or more complete full-dose cycles of a hypomethylating agent). The IPSS score in patients with relapsed or refractory myelodysplastic syndromes had been established at the time of their initial diagnosis. Eligible patients had Eastern Cooperative Oncology Group performance status of 0-2; adequate renal function (serum creatinine ≤1.5-times the upper limit of normal [ULN]) and adequate hepatic function (total bilirubin ≤2-times the ULN, and aspartate and alanine transaminases ≤2.5-times the ULN); had not undergone major surgery within 4 weeks or hemopoietic stem-cell transplantation within 8 weeks; or received chemotherapy within 2 weeks or nitrosoureas within 6 weeks of Compound I-1 treatment (hydroxycarbamide was allowed during treatment cycle 1). A patient with previous allogeneic stem-cell transplants was only eligible if the patient had no evidence of active graft-versus-host disease and had discontinued immunosuppressive therapy 2 weeks or more before receiving the study drug.\nPatients received subcutaneous Compound I-1 at 60 or 90 mg/m^2 on days 1-5 of a 28-day treatment cycle. The intention was to provide the standard planned dose for four or more cycles; dose reduction could be instituted, as necessary, and the length of treatment cycles could be extended up to 42 days to allow for bone-marrow recovery in cases of severe cytopenia. Additional delay or dose reduction was allowed for recovery from toxicity in previous cycles based on the physician's judgment.\nHematological responses were monitored by analysis of blood and bone marrow aspiration. After the initial bone marrow aspirate screening at baseline, the results of peripheral blood assessments determined the frequency of subsequent bone marrow aspiration to confirm response or assess drug-related bone marrow toxicity. Complete peripheral blood counts and white blood cell differentials were measured at least once a week, including granulocyte numbers, platelet numbers, and hemoglobin concentration.\nThe primary endpoint was overall response, which was a composite of complete response (CR), partial response, marrow complete response (mCR), and hematological improvement. Overall response was assessed by local investigators. Secondary endpoints included the individual components of overall response, time to response, duration of response, overall survival, blood transfusion and platelet transfusion independence at weeks 8 and 16, and safety, including the incidence of adverse events, and all-cause early mortality at 30, 60, and 90 days. Exploratory analyses were done to examine the association between baseline characteristics and overall response.\nActivity and safety endpoints were evaluated for all patients who received at least one dose of study drug, and no patients who received treatment were excluded from the analyses. […] Time to response and duration of response were summarized in days using descriptive statistics. Overall survival was analyzed using the Kaplan-Meier method, with survival time censored on the last date of contact if the patient was alive or lost to follow-up. Blood and platelet transfusion independence were summarized descriptively in the subset of patients who were transfusion-dependent at baseline. […]"}, "[2]": {"tested_on": "LINE-1 repeats (global DNA methylation)", "assay": "LINE-1 methylation assay on whole blood (global DNA methylation), Phase 1/2 trial", "type": "in vivo, human", "procedure": "Whole-blood samples were collected immediately before treatment, once a week during the first treatment cycle, and then on day 1 of subsequent cycles for demethylation analysis. Global DNA methylation was measured by the long interspersed nuclear element-1 (LINE-1) methylation assay. The LINE-1 assay measures methylation levels of LINE-1 repeats, which serve as a surrogate for global DNA methylation levels. Results of LINE-1 assays were used to assess and changes in methylation from baseline.\nActivity and safety endpoints were evaluated for all patients who received at least one dose of study drug, and no patients who received treatment were excluded from the analyses. […] Time to response and duration of response were summarized in days using descriptive statistics. Overall survival was analyzed using the Kaplan-Meier method, with survival time censored on the last date of contact if the patient was alive or lost to follow-up. Blood and platelet transfusion independence were summarized descriptively in the subset of patients who were transfusion-dependent at baseline. Change from baseline LINE-1 methylation and maximum LINE-1 demethylation were also summarized descriptively, with maximum LINE-1 demethylation defined as the largest percent decrease from baseline in methylation values by patient between days 8 and 22 of the first treatment cycle."}, "[3]": {"conditions": "landmark analysis, at least 4 cycles (65 patients)"}}}
{"smiles": "Nc1ncn([C@H]2CC(OP(=O)(O)OC[C@H]3O[C@@H](n4cnc5c(=O)[nH]c(N)nc54)CC3O)[C@@H](CO)O2)c(=O)n1", "note": "(some centres unmarked) [Compound I-1]", "values": [{"measurement": "12-month survival", "setting": "[1]; 60 mg/m^2", "result": 67, "unit": "%"}, {"measurement": "24-month survival", "setting": "[1]; 60 mg/m^2", "result": 39, "unit": "%"}, {"measurement": "Duration of response", "setting": "[1]; 60 mg/m^2", "result": 295, "unit": "days"}, {"measurement": "Median overall survival", "setting": "[1]; 60 mg/m^2", "result": 611, "unit": "days"}, {"measurement": "Partial response", "setting": "[1]; 60 mg/m^2 (n = 53)", "result": 0, "unit": "patients"}, {"measurement": "12-month survival", "setting": "[1]; 90 mg/m^2", "result": 60, "unit": "%"}, {"measurement": "24-month survival", "setting": "[1]; 90 mg/m^2", "result": 30, "unit": "%"}, {"measurement": "Duration of response", "setting": "[1]; 90 mg/m^2", "result": 207, "unit": "days"}, {"measurement": "Median overall survival", "setting": "[1]; 90 mg/m^2", "result": 399, "unit": "days"}, {"measurement": "Partial response", "setting": "[1]; 90 mg/m^2 (n = 49)", "result": 0, "unit": "patients"}, {"measurement": "Median survival", "setting": "[1]; 4 or more treatment cycles", "result": 20.4, "unit": "months"}, {"measurement": "OS", "setting": "[1]; 6 or more treatment cycles", "result": 23.8, "unit": "months"}, {"measurement": "OS hazard ratio", "setting": "[1]; 6 or more vs less than 6 treatment cycles", "result": 0.41}, {"measurement": "Partial response", "setting": "[1]; All patients (n = 102)", "result": 0, "unit": "patients"}, {"measurement": "Median OS", "setting": "[1]; Baseline BM Blasts >5%", "result": 12.3, "unit": "months"}, {"measurement": "Median OS", "setting": "[1]; Baseline BM Blasts ≤5%", "result": 22.7, "unit": "months"}, {"measurement": "Median OS", "setting": "[1]; Baseline ECOG PS 0-1", "result": 15.6, "unit": "months"}, {"measurement": "Median OS", "setting": "[1]; Baseline ECOG PS 2", "result": 8.7, "unit": "months"}, {"measurement": "Median OS", "setting": "[1]; Baseline RBCs Transfusion Dependent", "result": 11.7, "unit": "months"}, {"measurement": "Median OS", "setting": "[1]; Baseline RBCs Transfusion Independent", "result": 20.4, "unit": "months"}, {"measurement": "Partial response", "setting": "[1]; Relapsed or refractory (n = 53)", "result": 0, "unit": "patients"}, {"measurement": "Median OS", "setting": "[1]; TN MDS/CMML patients", "result": 23.4, "unit": "months"}, {"measurement": "Partial response", "setting": "[1]; Treatment-naïve (n = 49)", "result": 0, "unit": "patients"}, {"measurement": "Survival hazard ratio", "setting": "[1]; at least 4 vs less than 4 treatment cycles", "result": 0.55}, {"measurement": "Median duration of complete, partial or marrow complete response", "setting": "[1]; entire population", "result": 203, "unit": "days"}, {"measurement": "Median overall survival", "setting": "[1]; entire study population", "result": 460, "unit": "days"}, {"measurement": "Median OS", "setting": "[1]; landmark analysis, <4 cycles", "result": 15.2, "unit": "m"}, {"measurement": "Objective response (OR) rate", "setting": "[1]; landmark analysis, <4 cycles (26 patients)", "result": 15, "unit": "%"}, {"measurement": "Median OS", "setting": "[1]; landmark analysis, <6 cycles", "result": 13.6, "unit": "m"}, {"measurement": "Objective response (OR) rate", "setting": "[1]; landmark analysis, <6 cycles (43 patients)", "result": 26, "unit": "%"}, {"measurement": "Median OS", "setting": "[1]; landmark analysis, at least 4 cycles", "result": 20.4, "unit": "m"}, {"measurement": "Objective response", "setting": "[1]; [3]", "result": 44, "unit": "patients"}, {"measurement": "Objective response (OR) rate", "setting": "[1]; [3]", "result": 68, "unit": "%"}, {"measurement": "OS HR", "setting": "[1]; landmark analysis, at least 4 vs <4 cycles", "result": 0.78}, {"measurement": "Median OS", "setting": "[1]; landmark analysis, at least 6 cycles", "result": 23.8, "unit": "m"}, {"measurement": "Objective response (OR) rate", "setting": "[1]; landmark analysis, at least 6 cycles (44 patients)", "result": 82, "unit": "%"}, {"measurement": "OS HR", "setting": "[1]; landmark analysis, at least 6 vs <6 cycles", "result": 0.51}, {"measurement": "OS HR", "setting": "[1]; landmark, absence of objective response, at least 4 vs <4 cycles", "result": 0.82}, {"measurement": "OS HR", "setting": "[1]; landmark, absence of objective response, at least 6 vs <6 cycles", "result": 0.42}, {"measurement": "Median survival", "setting": "[1]; less than 4 treatment cycles", "result": 8.7, "unit": "months"}, {"measurement": "OS", "setting": "[1]; less than 6 treatment cycles", "result": 9.1, "unit": "months"}, {"measurement": "Median time to response", "setting": "[1]; patients with CR or marrow CR, entire study population", "result": 85, "unit": "days"}, {"measurement": "Median OS", "setting": "[1]; r/r MDS/CMML patients", "result": 11.7, "unit": "months"}, {"measurement": "2-year survival rate", "setting": "[1]; relapsed or refractory cohort", "result": 25, "unit": "%"}, {"measurement": "Median overall survival", "setting": "[1]; relapsed or refractory cohort", "result": 352, "unit": "days"}, {"measurement": "Median overall survival", "setting": "[1]; relapsed/refractory, 60 mg/m^2", "result": 9.1, "unit": "months"}, {"measurement": "Median overall survival", "setting": "[1]; relapsed/refractory, 90 mg/m^2", "result": 12.3, "unit": "months"}, {"measurement": "2-year survival rate", "setting": "[1]; treatment-naïve cohort", "result": 44, "unit": "%"}, {"measurement": "Median overall survival", "setting": "[1]; treatment-naïve cohort", "result": 703, "unit": "days"}, {"measurement": "Mean maximum LINE-1 demethylation", "setting": "[2]; 60 mg/m^2", "result": 23.9, "unit": "%"}, {"measurement": "Mean maximum LINE-1 demethylation", "setting": "[2]; 90 mg/m^2", "result": 28.2, "unit": "%"}, {"measurement": "Mean maximum LINE-1 demethylation", "setting": "[2]; relapsed or refractory", "result": 28.9, "unit": "%"}, {"measurement": "Time of maximum extent of global DNA demethylation", "setting": "[2]; returned to pretreatment levels by day 28", "result": "~8", "unit": "days"}, {"measurement": "Mean maximum LINE-1 demethylation", "setting": "[2]; treatment-naïve", "result": 28.6, "unit": "%"}, {"measurement": "Mean maximum LINE-1 demethylation", "setting": "[2]; with objective treatment response", "result": 28.1, "unit": "%"}, {"measurement": "Mean maximum LINE-1 demethylation", "setting": "[2]; without objective treatment response", "result": 29.4, "unit": "%"}]}
